Results on 26 compounds are retold here after patent US20200002303A1, “C-GLYCOSIDE COMPOUNDS USEFUL FOR TREATING DISEASE” (Fimbrion Therapeutics, Inc., priority 2016, published 2020).

Molecules are shown by their SMILES.

This experiment has as its target T1, FimH (Escherichia coli, UniProt Q1R2J4).
T1 construct: performed with UTI89 bacteria and guinea pig red blood cells; endogenous in cells; host or cells: UTI89 bacteria (whole cells, type 1 piliated)
It is filed as cell-based. Particulars: concentration reducing bacterial agglutination of guinea pig red blood cells by greater than 90%; UTI89 bacteria. How it is done:
The hemagglutination inhibition (HAI) assay was performed with UTI89 bacteria and guinea pig red blood cells, as previously described (S. J. Hultgren, W. R. Schwan, A. J. Schaeffer, J. L. Duncan Infect. Immun. 1986, 54, 613-620).
As for `Cc1cc(N=[N+]=[N-])ccc1[C@@H](O)[C@H]1O[C@H](CO)[C@@H](O)[C@H](O)[C@@H]1O` [Example 47, (2R,3S,4S,5S,6R)-2-((R)-(4-azido-2-methylphenyl)(hydroxy)methyl)-6-(hydroxymethyl)tetrahydro-2H-pyran-3,4,5-triol], the “HAI titer EC>90” value came out at 0.25 µM.
Next, `Cc1cc(-c2cccc(C#N)c2)ccc1[C@@H](O)[C@H]1O[C@H](CO)[C@@H](O)[C@H](O)[C@@H]1O` [Example 51, 4′-((R)-hydroxy((2R,3S,4S,5S,6R)-3,4,5-trihydroxy-6-(hydroxymethyl)tetrahydro-2H-pyran-2-yl)methyl)-3′-methylbiphenyl-3-carbonitrile]: 0.026 µM; `Cc1cc(-c2cccc3c2CNC3=O)ccc1[C@@H](O)[C@H]1O[C@H](CO)[C@@H](O)[C@H](O)[C@@H]1O` [Example 13, 4-(4-((R)-Hydroxy ((2R,3S,4S,5S,6R)-3,4,5-trihydroxy-6-(hydroxymethyl)-tetrahydro-2H-pyran-2-yl)methyl)-3-methylphenyl)isoindolin-1-one]: 0.083 µM.
Regarding `Cc1cc(-c2ccc3cc[nH]c(=O)c3c2)cc(C)c1[C@@H](O)[C@H]1OC(CO)[C@@H](O)[C@H](O)C1O` (single isomer, unassigned) [Example 29], the “HAI titer EC>90” value came to 0.108 µM.
As to `Cc1cc(-c2ccc3nc[nH]c3c2)ccc1[C@@H](O)[C@H]1O[C@H](CO)[C@@H](O)[C@H](O)[C@@H]1O` [Example 17, (2R,3S,4S,5S,6R)-2-((R)-(4-(3H-Benzo[d]imidazol-5-yl)-2-methylphenyl) (hydroxy)methyl)-6-(hydroxymethyl)-tetrahydro-2H-pyran-3,4,5-triol], the “HAI titer EC>90” value was 0.037 µM.
As for `Cc1cc(-c2ccnc(-c3ccnc(Cl)c3)c2)ccc1[C@@H](O)[C@H]1O[C@H](CO)[C@@H](O)[C@H](O)[C@@H]1O` [Example 23, (2R,3S,4S,5S,6R)-2-((R)-(4-(2′-Chloro-[2,4′-bipyridin]-4-yl)-2-methylphenyl) (hydroxy)methyl)-6-(hydroxymethyl)tetrahydro-2H-pyran-3,4,5-triol], the “HAI titer EC>90” value stood at 0.008 µM.
Take `Cc1cc(-c2cn3ccccc3n2)ccc1[C@@H](O)[C@H]1O[C@H](CO)[C@@H](O)[C@H](O)[C@@H]1O` [Example 36, (2R,3S,4S,5S,6R)-2-((R)-Hydroxy (4-(imidazo[1,2-a]pyridin-2-yl)-2-methylphenyl)methyl)-6-(hydroxymethyl)-tetrahydro-2H-pyran-3,4,5-triol]: the “HAI titer EC>90” value was 0.019 µM.
Under `Cc1cc(-c2ccnc(N3CCOCC3)c2)ccc1[C@@H](O)[C@H]1O[C@H](CO)[C@@H](O)[C@H](O)[C@@H]1O` [Example 25, (2R,3S,4S,5S,6R)-2-((R)-Hydroxy (2-methyl-4-(2-morpholinopyridin-4-yl)phenyl)methyl)-6-(hydroxymethyl)-tetrahydro-2H-pyran-3,4,5-triol] stands 0.006 µM.
As to `Cc1cc(-c2ccnc(Cl)c2)ccc1[C@@H](O)[C@H]1O[C@H](CO)[C@@H](O)[C@H](O)[C@@H]1O` [Example 22, (2R,3S,4S,5S,6R)-2-((R)-(4-(2-Chloropyridin-4-yl)-2-methylphenyl) (hydroxy)methyl)-6-(hydroxymethyl)-tetrahydro-2H-pyran-3,4,5-triol], the “HAI titer EC>90” value was found to be 0.027 µM.
Regarding `CNC(=O)c1cccc(-c2ccc([C@@H](N)[C@H]3O[C@H](CO)[C@@H](O)[C@H](O)[C@@H]3O)c(C)c2)c1` [Example 6, 4′-((R)-amino((2R,3S,4R,5S,6R)-3,4,5-trihydroxy-6-(hydroxymethyl)tetrahydro-2H-pyran-2-yl)methyl)-N,3′-dimethylbiphenyl-3-carboxamide], the “HAI titer EC>90” value was found to be 0.5 µM.
As for `CNC(=O)c1cccc(-c2ccc([C@@H](O)[C@H]3O[C@H](CO)[C@@H](O)[C@H](O)[C@@H]3O)c(Cl)c2)c1` [Example 45, 3′-chloro-4′-((R)-hydroxy((2R,3S,4S,5S,6R)-3,4,5-trihydroxy-6-(hydroxymethyl)tetrahydro-2H-pyran-2-yl)methyl)-N-methylbiphenyl-3-carboxamide], the “HAI titer EC>90” value was determined as 0.047 µM.
Next, `CNC(=O)c1cc(-c2ccc([C@@H](O)[C@H]3O[C@H](CO)[C@@H](O)[C@H](O)[C@@H]3O)c(C)c2)ccc1C#N` [Example 43, 4-Cyano-4′-((R)-hydroxy ((2R,3S,4S,5S,6R)-3,4,5-trihydroxy-6-(hydroxymethyl)-tetrahydro-2H-pyran-2-yl)methyl)-N,5′-dimethylbiphenyl-3-carboxamide]: 0.006 µM.
Under `Cc1cc(-c2cccc(C(=O)Nc3ccccn3)c2)ccc1[C@@H](O)[C@H]1O[C@H](CO)[C@@H](O)[C@H](O)[C@@H]1O` [Example 37, 4′-((R)-Hydroxy ((2R,3S,4S,5S,6R)-3,4,5-trihydroxy-6-(hydroxymethyl)-tetrahydro-2H-pyran-2-yl)methyl)-5′-methyl-N-(pyridin-2-yl)biphenyl-3-carboxamide] stands 0.012 µM; under `O=C1NCCc2ccc(-c3ccc([C@H](O)[C@H]4O[C@H](CO)[C@@H](O)[C@H](O)[C@@H]4O)c(C(F)(F)F)c3)cc21` [Example 34, 7-(4-((S)-hydroxy ((2R,3S,4S,5S,6R)-3,4,5-trihydroxy-6-(hydroxymethyl)tetrahydro-2H-pyran-2-yl)methyl)-3-(trifluoromethyl)phenyl)-3,4-dihydroisoquinolin-1 (2H)-one], 3 µM; under `Cc1cc(-n2cc(-c3ccccc3)nn2)ccc1[C@@H](O)[C@H]1O[C@H](CO)[C@@H](O)[C@H](O)[C@@H]1O` [Example 48, (2R,3S,4S,5S,6R)-2-((R)-hydroxy(2-methyl-4-(4-phenyl-1H-1,2,3-triazol-1-yl)phenyl)methyl)-6-(hydroxymethyl)tetrahydro-2H-pyran-3,4,5-triol], 0.016 µM.
Consider `Cc1cc(-c2ccc3onc(C)c3c2)ccc1[C@@H](O)[C@H]1O[C@H](CO)[C@@H](O)[C@H](O)[C@@H]1O` [Example 20, (2R,3S,4S,5S,6R)-2-((R)-Hydroxy (2-methyl-4-(3-methylbenzo[d]isoxazol-5-yl)phenyl)methyl)-6-(hydroxymethyl)-tetrahydro-2H-pyran-3,4,5-triol], for which the “HAI titer EC>90” value was determined as 0.068 µM.
Next, `CNC(=O)c1cncc(-c2ccc([C@@H](O)[C@H]3O[C@H](CO)[C@@H](O)[C@H](O)[C@@H]3O)c(C)c2)c1` [Example 35, 5-(4-((R)-Hydroxy ((2R,3S,4S,5S,6R)-3,4,5-trihydroxy-6-(hydroxymethyl)-tetrahydro-2H-pyran-2-yl)methyl)-3-methylphenyl)-N-methylnicotinamide]: 0.01 µM; `Cc1cc(-c2ccc3cccnc3c2)ccc1[C@@H](O)[C@H]1O[C@H](CO)[C@@H](O)[C@H](O)[C@@H]1O` [Example 15, (2R,3S,4S,5S,6R)-2-((R)-Hydroxy (2-methyl-4-(quinolin-7-yl)phenyl)methyl)-6-(hydroxymethyl)-tetrahydro-2H-pyran-3,4,5-triol]: 0.015 µM; `CNC(=O)c1cc(C#N)cc(-c2ccc([C@@H](O)[C@H]3O[C@H](CO)[C@@H](O)[C@H](O)[C@@H]3O)c(C)c2)c1` [Example 42, 5-Cyano-4′-((R)-hydroxy ((2R,3S,4S,5S,6R)-3,4,5-trihydroxy-6-(hydroxymethyl)-tetrahydro-2H-pyran-2-yl)methyl)-N,5′-dimethylbiphenyl-3-carboxamide]: 0.006 µM.
Under `Cc1cc(-c2ccc3cc[nH]c(=O)c3c2)cc(C)c1[C@H](O)[C@H]1OC(CO)[C@@H](O)[C@H](O)C1O` (single isomer, unassigned) [Example 30] stands 0.406 µM; under `Cc1cc(-c2ccc3ccn(C(C)C)c(=O)c3c2)ccc1[C@@H](O)[C@H]1O[C@H](CO)[C@@H](O)[C@H](O)[C@@H]1O` [Example 31, 7-(4-((R)-Hydroxy ((2R,3S,4S,5S,6R)-3,4,5-trihydroxy-6-(hydroxymethyl)-tetrahydro-2H-pyran-2-yl)methyl)-3-methylphenyl)-2-isopropylisoquinolin-1 (2H)-one], 0.006 µM.
Under `CNC(=O)c1cccc(-c2ccc(C(OC)[C@H]3O[C@H](CO)[C@@H](O)[C@H](O)[C@@H]3O)cc2C)c1` (single isomer, unassigned) [Example 8] stands 0.5 µM; under `CNC(=O)c1cccc(-c2ccc([C@@H](N=[N+]=[N-])[C@H]3O[C@H](CO)[C@@H](O)[C@H](O)[C@@H]3O)c(C)c2)c1` [Example 44, 4′-((R)-azido((2R,3S,4R,5S,6R)-3,4,5-trihydroxy-6-(hydroxymethyl)tetrahydro-2H-pyran-2-yl)methyl)-N,3′-dimethylbiphenyl-3-carboxamide], 0.062 µM; under `CNC(=O)c1cccc(-c2ccc([C@@H](O)[C@H]3O[C@H](CO)[C@@H](O)[C@H](O)[C@@H]3O)c(C(F)(F)F)c2)c1` [Example 39, 4′-((R)-Hydroxy ((2R,3S,4S,5S,6R)-3,4,5-trihydroxy-6-(hydroxymethyl)-tetrahydro-2H-pyran-2-yl)methyl)-N-methyl-5′-(trifluoromethyl)biphenyl-3-carboxamide], 0.015 µM.
For `Cc1cc(-c2ccc3ncccc3c2)ccc1[C@@H](O)[C@H]1O[C@H](CO)[C@@H](O)[C@H](O)[C@@H]1O` [Example 14, (2R,3S,4S,5S,6R)-2-((R)-Hydroxy (2-methyl-4-(quinolin-6-yl)phenyl)methyl)-6-(hydroxymethyl)-tetrahydro-2H-pyran-3,4,5-triol], the “HAI titer EC>90” value came to 0.032 µM.
In the case of `Cc1cc(-c2cccc(C(=O)N(C)C)c2)ccc1[C@@H](O)[C@H]1O[C@H](CO)[C@@H](O)[C@H](O)[C@@H]1O` [Example 41, 4′-((R)-Hydroxy ((2R,3S,4S,5S,6R)-3,4,5-trihydroxy-6-(hydroxymethyl)-tetrahydro-2H-pyran-2-yl)methyl)-N,N,5′-trimethylbiphenyl-3-carboxamide], the “HAI titer EC>90” value amounted to 0.057 µM.
